Assay: gradient 5% acetonitrile 3 min, to 50% in 2 min, to 85% in 15 min, held 3 min, 100 µL/min
Settings: column: Zorbax Extend-C18 2.1 x 50 mm; eluents: water / acetonitrile, 0.1% formic acid
Outline: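 The system's dead and dwell volumes were 40 μL and 900 μL, with a Zorbax Extend-C18 column (2.1 × 50 mm, 1.8 μm) run at 100 μL/min in water and acetonitrile containing 0.1% formic acid each. Pure standards were analyzed in mixtures of ~100 molecules by HPLC–quadrupole time-of-flight mass spectrometry in positive and negative ionization mode. Retention time was assigned from computationally picked, manually inspected adduct peaks.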

SMILES | RP-LC retention time [s]
CCC(C)NC(=O)C1CCCN(C(=O)c2cc(-c3ccccn3)n[nH]2)C1 (stereo not drawn) | 611
COC1=C(OC)C(=O)c2ccccc2C1=O | 878
Cc1ccc(-c2cc3c(N4CCC(C(=O)NC5CCCCC5)CC4)nccn3n2)c(C)c1 | 905
CCN1CCCn2cc(S(=O)(=O)Nc3ccc(F)cc3Cl)cc2C1=O | 738
O=[N+]([O-])c1cc(F)c2cccnc2c1O | 773
O=C(C1CCCCC1)N1CCCC(c2n[nH]c(C3CC3)n2)C1 (stereo not drawn) | 584
CCCNC(=O)C1CCCN(c2nc3ncn(CC(=O)N4CCc5ccccc5C4)c(=O)c3s2)C1 (stereo not drawn) | 705
CCc1ccc(NC(=O)N2CCCC(C)(C(=O)NCc3ccccc3)C2)cc1 (stereo not drawn) | 878
CSc1ccc(C2c3[nH]c4ccccc4c3CCN2C(=O)c2cccs2)cc1 (stereo not drawn) | 1220
CCN1CCn2cc(S(=O)(=O)Nc3ccc(F)c(F)c3)cc2C1=O | 727
O=C(NC1(c2nc(-c3ccccn3)no2)CCCCC1)c1ccccc1 | 848
O=S(=O)(c1ccc2nncn2c1)N(Cc1ccc(F)cc1)c1ccc(F)cc1 | 861
O=C([C@@H]1C[C@H](Oc2cccnc2)CN1C(=O)c1n[nH]c(=O)c2ccccc12)N1CCCC1 | 564
CCCCNC(=O)C1CCN(C(=O)Nc2ccc(NC(=O)NC3CCCCC3)cc2)CC1 | 732
CCOc1ccc(-n2nnnc2CNC(=O)CCCN2C(=O)c3ccccc3C2=O)cc1 | 734
COCCOCc1nc(C2CCN(S(=O)(=O)c3cc(F)ccc3F)CC2)no1 | 806
O=C(Cn1c(=O)n(C2CCCCC2)c2ncccc21)NCc1cccnc1 | 603
O=c1ccc(-c2ccc3c(c2)OCO3)nn1CCc1nc(-c2ccccn2)no1 | 730
COc1ccc(/C=C\c2onc(C)c2NC(C)=O)cc1S(=O)(=O)N1CCN(c2ncccn2)CC1 | 738
CC1CCN(C(=O)CCCN2C(=O)CCn3nc(-c4cn(C)c5ccccc45)cc32)CC1 | 880
O=[N+]([O-])c1ccc(CNc2nc(NCc3cccc(C(F)(F)F)c3)nc3nc[nH]c23)cc1 | 790
COc1ccc(C2Cn3nnc(-c4nc(-c5ccncc5)no4)c3CO2)cc1 (stereo not drawn) | 873
COc1ccc(CNC(=O)N2CCC(COCc3ccccc3)CC2)cc1OC | 814
CCN1CCN(c2nc(-c3cccnc3)nc3ccccc23)CC1 | 524
CC(=O)N1CCC(c2nc(-c3ccc(CNC(=O)C4CC4)s3)no2)CC1 | 661
CCCN1CCN(C(=O)C2CCCN(S(=O)(=O)c3cc(-c4noc(C)n4)cs3)C2)CC1 (stereo not drawn) | 638

SMILES | RP-LC retention time [s]
CCOC(=O)Cc1ccc(NC(=O)N2CCN(c3nc4ccccc4nc3C(F)(F)F)CC2)cc1 | 1080
O=C(O)c1cc(NS(=O)(=O)c2ccccc2C(F)(F)F)cc(C(=O)O)c1 | 660
CCOC(=O)c1c(C)oc2nc(C)nc(N3CCC(c4ccccc4)C3)c12 (stereo not drawn) | 1130
Cc1cc(C)n(-c2ccnc(N3CCC(C(=O)NCCc4ccccn4)CC3)n2)n1 | 575
O=C(c1cnn(-c2ccccc2)n1)N1CCN(C(=O)C2CC2c2ccc(F)cc2)CC1 (stereo not drawn) | 898
O=C(NCc1ccccc1Cl)C1CCN(C(=O)c2ncn3c2COC(c2ccccc2)C3)CC1 (stereo not drawn) | 786
COc1cc2c(cc1OC)C(COc1cccc(C(F)(F)F)c1)NCC2 (stereo not drawn) | 586
COc1ccc(C2Nc3ccc(C)cc3[C@H]3OCCC[C@@H]23)cc1O (stereo partly drawn) | 894
COc1ccc2c(c1)C1(CCN(C(=O)c3ccc(OC)c(OC)c3)C1)C(=O)N2 (stereo not drawn) | 674
O=S(=O)(Cc1ccccc1)N1CC(c2nc(Cc3ccccc3)no2)C1 | 1010
CCN(CC)S(=O)(=O)c1ccc2c(c1)CC(C(=O)N1CCC(C)CC1)N2C(C)=O (stereo not drawn) | 849
Cc1nn(-c2ccc(-c3ccccc3)nn2)c(C)c1S(=O)(=O)NCc1ccccc1 | 1030
COc1ccc(Cc2noc(Cc3nnc(-c4cccc(Cl)c4)o3)n2)cc1 | 1010
CN(C)S(=O)(=O)Nc1cccc(Br)c1 | 898
COc1ccc(N2C=C(C(=O)N3CCCC3)S(=O)(=O)c3ccccc32)cc1Cl | 808
Cc1ccc(C)c(NC(=O)N2CCN(c3ccc(=O)n(-c4ccccc4)n3)CC2)c1 | 820
O=C(CCC1CCCC1)NC1CCN(c2ccc(=O)[nH]n2)C1 (stereo not drawn) | 649
O=C(NCc1ccc2c(c1)OCO2)c1c(O)c2cccnc2n(-c2ccc(F)cc2)c1=O | 1120
O=C(CN1C(=O)CCc2cc(Br)ccc21)NCCc1ccccc1 | 870
COc1ccccc1-c1noc(Cn2c(=O)n(Cc3ccc(F)cc3)c(=O)c3sccc32)n1 | 1020
CC(=O)N1CCc2cc(N3CC(C(=O)NCCC(C)C)CC3=O)ccc21 (stereo not drawn) | 669
CCN1CCN(CCNC(=O)C(C)C2CCN(C(=O)c3cc4cc(Cl)ccc4[nH]3)CC2)CC1 (stereo not drawn) | 630
COc1ccc(Cl)cc1S(=O)(=O)N1CCCN(c2ccc(=O)n(-c3ccccc3)n2)CC1 | 906
O=S(=O)(c1ccc(-c2cnc(C3CCC3)o2)s1)N1CCN(c2ncccn2)CC1 | 1040
O=C(CC1=CCCCC1)N1CCC(C2CCNC2)CC1 (stereo not drawn) | 602

Next, values leading:

RP-LC retention time [s] | SMILES
715 | CCCN1CCN(c2ccc(-c3nc(-c4ccccc4)no3)cn2)CC1
628 | O=C(Nc1ccc2ncnc(N3CCCC3)c2c1)C1CCC1
731 | CCOc1ccc2nc(C(=O)NC(C)C)cn2n1
961 | CCCN(CC1CCOC1)C(=O)Nc1cc(Cl)ccc1OC (stereo not drawn)
565 | CC(NC(=O)C1CCCN(c2cnc3nccnc3c2)C1)c1ccccn1 (stereo not drawn)
916 | CSc1ccc(NC(=O)NC2CCN(c3cc(C)cc(C)c3)C2=O)cc1 (stereo not drawn)
627 | Cc1ccc(-n2nc3c(N4CCCC(C(=O)NCCCN5CCCC5=O)C4)nnc(C)c3c2C)cc1 (stereo not drawn)
1140 | CCOc1ccc(-c2nc(-c3ccc4nnn(CC)c4c3)no2)cc1
1030 | CCn1nc(-c2nc(-c3ccc(Cl)cc3)no2)ccc1=O
811 | Cc1ccccc1Nc1c(-c2ccc(N(C)C)cc2)nc2cccc(C)n12
1050 | CCOc1ccc(-c2nc(NC(=O)c3ccccc3[N+](=O)[O-])sc2C)cc1
556 | COc1nccnc1N1CCC(NC(=O)Cc2cccnc2)C1 (stereo not drawn)
1160 | CNC(=O)c1ccsc1NC(=O)c1cccc(C(F)(F)F)c1
804 | Cc1ccc2nc(C(=O)N3CCN(c4cccc(C)c4C)CC3)cn2c1
850 | COc1ccc(NC(=O)Cn2cccc2-c2nnc(-c3ccccc3)o2)cc1OC
988 | CN(C)CCNc1oc(-c2ccc(COc3ccc(Cl)cc3)o2)nc1C#N
1020 | Cc1ccc(NC(=O)Cn2c(=O)cc(-c3nc(C4CC4)no3)c3ccccc32)cc1F
953 | Cc1ccc(C)c(NC(=O)C2CCN(S(=O)(=O)c3cc(-c4noc(C)n4)cs3)CC2)c1
1060 | CC(C)(C)C(=O)Nc1cnc(-c2ccc(Cl)cc2)nc1

RP-LC retention time [s] | SMILES
999 | CC1CCN(C(=O)C2=CN(c3ccccc3)c3cc(Cl)ccc3S2(=O)=O)CC1
966 | COc1ccc(-n2ccc(=O)c(-c3nc(-c4ccc(F)c(Cl)c4)no3)n2)cc1
784 | CCOc1ccc(-c2cc3c(=O)n(Cc4nc(-c5ccc(C)cc5)no4)ncn3n2)cc1
827 | CC(C)c1nc2nccc(-c3ccccc3)n2n1
814 | Cc1ccc(C(=O)NCC(=O)Nc2cc(-c3nc(C)cs3)sc2C)cc1
721 | Cc1ccc2c(c1)c1nc3ccccc3nc1n2CC(=O)O
799 | O=C(NCCc1ccccc1)Nc1cnn(-c2ncc(N3CCCCC3)cn2)c1
616 | O=C(Cn1ncc2c(N3CCN(c4ccccn4)CC3)ncnc21)Nc1ccc(Cl)cn1
775 | CCc1onc(C)c1C1CCCN1C(=O)c1ccc(C)cc1 (stereo not drawn)
1040 | O=c1ccn(-c2cccc(F)c2)nc1-c1nc(-c2ccc(F)c(Br)c2)no1
668 | CCN(CC)CCCNC(=O)C1CCCN(c2ncc(-c3ccc(F)cc3)cn2)C1 (stereo not drawn)
605 | Cc1ccc(NC(=O)N2CC(N(C)Cc3cccnc3)C2)cc1C
835 | CCS(=O)(=O)c1nc2ccc(NS(=O)(=O)c3ccccc3F)cc2s1
872 | COc1cc(NC(=O)CN2C(=O)C(O)(c3ccccc3)c3ccccc32)cc(OC)c1 (stereo not drawn)
880 | Cc1cccc(NC(=O)Cn2c(=O)n(-c3ccc(F)cc3)c3ncccc32)c1C
912 | Cc1nc(-c2cn(C(C)C)c3ncccc23)sc1C(=O)NCc1ccco1
832 | CCOc1ccc(NC(=O)Cn2c(=O)n(-c3ccccc3)c(=O)c3c2cc(C)n3C)cc1
868 | CCOC(=O)c1nc(NCc2ccc(Cl)cc2)c2ccccc2n1

— the METLIN SMRT retention time set (Domingo-Almenara et al. 2019)
